Several values for one entry are separate records, joined by “and”; a condition that tells them apart may be missing. Identical values can stand only once. Values belong to the molecule of their own block, whether it stands above or below them.
Tested on: 883617-216-R-J1-PDC complex spheroids, growth, % test/control
Assay: Anticancer human tumor 883617-216-R-J1-PDC patient-derived bladder carcinoma cell line growth inhibition [AhR]
Conditions: for viability, T/C: stronger effect = lower value
In short: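 Complex tumor spheroids co-cultured with HUVEC and human MSC stroma; AhR antagonists tested in combination with standard-of-care and investigational agents. Top concentration at or near clinical Cmax (else 10 microM), half-log dilutions; growth expressed as percent test/control.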
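Further: exposure lasted 7 days after dosing on day 3 of spheroid growth.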

IC50 (curve of first compound, second compound 0.1 µM): 0.906 µM | IC50 (curve of first compound, second compound 0.316 µM): > 1 µM | IC50 (curve of first compound, second compound 1 µM): 0.813 µM | IC50 (curve of first compound, second compound 3.16 µM): 0.491 µM | IC50 (curve of first compound, second compound 10 µM): 0.624 µM
Structure (SMILES): CC1COCCN1c1cc(-c2ccnn2C)c2ccnc(-c3ccn[nH]3)c2n1 (configuration not stated) + Cc1ccccc1N=Nc1ccc(NC(=O)c2ccnn2C)c(C)c1
viability, T/C (second compound 0.1 µM, first compound 0.00316 µM): 98% | viability, T/C (second compound 0.1 µM, first compound 0.01 µM): 96.6% | viability, T/C (second compound 0.1 µM, first compound 0.0316 µM): 76.7% | viability, T/C (second compound 0.1 µM, first compound 0.1 µM): 74.6% | viability, T/C (second compound 0.1 µM, first compound 0.316 µM): 58.6% | viability, T/C (second compound 0.1 µM, first compound 1 µM): 49.1% | viability, T/C (second compound 0.316 µM, first compound 0.00316 µM): 97.7% | viability, T/C (second compound 0.316 µM, first compound 0.01 µM): 83.3% | viability, T/C (second compound 0.316 µM, first compound 0.0316 µM): 85.9% | viability, T/C (second compound 0.316 µM, first compound 0.1 µM): 69.6% | viability, T/C (second compound 0.316 µM, first compound 0.316 µM): 55.7% | viability, T/C (second compound 0.316 µM, first compound 1 µM): 51.4% | viability, T/C (second compound 1 µM, first compound 0.00316 µM): 84.4% | viability, T/C (second compound 1 µM, first compound 0.01 µM): 88.8% | viability, T/C (second compound 1 µM, first compound 0.0316 µM): 70.3% | viability, T/C (second compound 1 µM, first compound 0.1 µM): 67.7% | viability, T/C (second compound 1 µM, first compound 0.316 µM): 56% | viability, T/C (second compound 1 µM, first compound 1 µM): 48.4% | viability, T/C (second compound 3.16 µM, first compound 0.00316 µM): 86.5% | viability, T/C (second compound 3.16 µM, first compound 0.01 µM): 81.2% | viability, T/C (second compound 3.16 µM, first compound 0.0316 µM): 71.2% | viability, T/C (second compound 3.16 µM, first compound 0.1 µM): 71.2% | viability, T/C (second compound 3.16 µM, first compound 0.316 µM): 49.8% | viability, T/C (second compound 3.16 µM, first compound 1 µM): 44.3% | viability, T/C (second compound 10 µM, first compound 0.00316 µM): 77.9% | viability, T/C (second compound 10 µM, first compound 0.01 µM): 79.7% | viability, T/C (second compound 10 µM, first compound 0.0316 µM): 66.6% | viability, T/C (second compound 10 µM, first compound 0.1 µM): 61.7% | viability, T/C (second compound 10 µM, first compound 0.316 µM): 52.4% | viability, T/C (second compound 10 µM, first compound 1 µM): 48.1%

IC50 (curve of compound): > 0.3 µM
Structure (SMILES): Nc1ncn(C2CC(O)C(CO)S2)c(=O)n1 (configuration not stated)
viability, T/C (compound 0.000949 µM): 101% and 103% and 61.3% | viability, T/C (compound 0.003 µM): 114% and 103% and 79.2% | viability, T/C (compound 0.00949 µM): 93.2% and 103% and 71.2% | viability, T/C (compound 0.03 µM): 97.5% and 101% and 64% | viability, T/C (compound 0.0949 µM): 88.2% and 99% and 72.8% | viability, T/C (compound 0.3 µM): 78.9% and 82.5% and 87.1%

Reference: PubChem BioAssay AID1919004 (Molecular Pharmacology Branch, DTP, NCI, 2023)
